The values that follow come from PMC5829242, “Chiral DOTA chelators as an improved platform for biomedical imaging and therapy applications” (Nature Communications, 2018).

For series [1] the following is noted: cited from earlier work; for elimination through the biliary system: predominantly renal elimination.
The conditions of series [2]: cited from earlier work.
Series [3] is described as follows: Relaxivity measurements at 1.41T and 37 °C. The format is physicochemical. On the procedure: (§1) Relaxivity measurements were performed on a Bruker mq60 Minispec at 1.41T and 37 °C. Longitudinal (T1) relaxation times were measured using an inversion recovery experiment with 10 inversion times of duration ranging between 0.05 × T1 and 5 × T1. Transverse (T2) relaxation times were measured using a CPMG pulse sequence. Relaxivity (r1, r2) was determined from the slope of a plot of 1/T1,2 vs [Gd] for at least 4 concentrations of Gd(III) (data shown in Supplementary Figs. 93–110). The T2 relaxation times of ^17O at 11.7T were estimated from the full-width at half-height of the H2^17O resonance at temperatures ranging from 278 to 368K. Reduced relaxation rates (1/T2r) were calculated by taking the difference of 1/T2 measured in the presence and absence of Gd(III) and dividing by the mole fraction of coordinated water molecules, assuming q = 1. […] However, at the high magnetic field used, and because of the very-fast water exchange rates observed, there was negligible contribution of T1e, and the data were refit to a two-parameter model using the water exchange rate at 310K (τM) and enthalpy of activation for water exchange (ΔH^‡) as adjustable parameters. The Gd-O hyperfine coupling constant, A/ħ, was assumed to be -3.8 × 10^6 rad s^−1 [57], [58]. Samples were prepared in neat H2O adjusted and enriched with a small amount of H2^17O.

Series [4] can be described thus: Kinetic stability of Gd complexes monitored by RP-HPLC (acid, base, DTPA, DOTA, ZnCl2). The format is physicochemical. From the text:
The kinetic stability of GBCAs, which reflects the dissociation of the Gd ions from its chelate is used to predict the stability in vivo[10]. The proton-assisted dissociation and direct attack of the endogenous ions are regarded as two main pathways that induced the dissociation of the chelates. The inertness of our Gd(III) complexes was maintained up to 7 days after addition of 1000 equivalents of a competitive ligand, DTPA (Supplementary Fig. 7 & 8). […] The harshest condition tried was setting the complexes of [GdL2A]^−, [GdL2B]^− and [GdDOTA]^− in 1N HCl (Fig. 5, Supplementary Figs. 13 - 15).
Fig. […] Error bars for [GdL2A]^- and [GdL2B]^- refer to the standard error of mean (S.E.M.), statistical data fitting analysis (n = 3; s.e.m.)

Series [5] is described as follows: Gd complexes biodistribution studies (ICP-MS). It counts as in vivo, BALB/c mice. The note with it: 0.025 mmol/kg i.v.; for Gd biodistribution / elimination profile: 5-360 min post injection. From the text:
Most commercially available Gd(III)-based MRI contrast agents are excreted rapidly and exclusively through the renal pathway. One of the few exceptions is an acyclic compound, Gd-EOB-DTPA, which has a mixed clearance (50% renal, 50% biliary) and is used for imaging of the liver and biliary system. Gd-BOPTA and MS-325 have predominantly renal elimination with <10% elimination through the biliary system. […] We illustrated with our studies that there is a significant variation in the biodistribution profiles despite the small structural differences of the chiral substituents (Supplementary Fig. 20). Gd biodistribution in BALB/c mice was measured by ICP-MS at 5, 15, 30, 60, 180 and 360 min following injection. […] Low levels of Gd(III) are present at 6 h post injection. […] The specific and unusual localisation of [GdL2]^− in the liver makes it a potential hepatobiliary-specific MRI contrast agent.
Gd concentrations were determined using an Agilent 8800-QQQ ICP-MS system. All samples were diluted with 0.1% Triton X-100 in 5% nitric acid. Lutetium internal standard was steadily introduced to the ICP-MS from an external source during the analysis. A linear calibration curve for each metal ranging from 0.1 ppb to 200 ppb was generated daily for the quantification.
Complexes [GdL1]^−, [GdL2]^− and [GdL5]^− were prepared by dissolving in saline solution, while [GdDOTA]^− (Dotarem) was diluted in saline solution. Eight-week-old male BALB/c mice (purchased from BioLASCO, Taiwan) each weighing approximately 25 g were administered with a single dose of 0.025 mmol/kg compound ([GdL1]^−, [GdL2]^−, [GdDOTA]^− and [GdL5]^−; 3 mice per compound per time point) in a 100 μl volume via lateral tail vein injection. The mice were then euthanized, and their blood collected by cardiac puncture at each time point (5, 15, 30, 60, 180 or 360 min post injection). A control group of 4 mice was treated with saline and killed at time point 0. The liver, lung, heart, kidneys, spleen and brain were removed from the animals and weighed. Gd content in tissue and blood samples was quantified via ICP-MS analysis. All experiments were performed in accordance with the NIH Guide for the Care and Use of Laboratory Animals and approved by the Institutional Animal Care and Use Committee of Massachusetts General Hospital or by the Department of Health of the Hong Kong Government and the Animal Subjects Ethics Sub-Committee of Hong Kong Polytechnic University.

A short description of series [6]: 17O NMR water exchange (residence time of water co-ligand). The format is physicochemical. The note with it: 17O NMR at 11.7T; for τM^310K, mean residence time of the water co-ligand at 310 K: q = 1 assumed. On the procedure:
as §1

Each structure is given as a SMILES string. Read-outs that look alike come from different tables or passages of the source.

On to `CCOc1ccc(C[C@@H](CN(CCN(CC(=O)[O-])CC(=O)[O-])CC(=O)[O-])N(CC(=O)[O-])CC(=O)[O-])cc1.[Gd+3].[Na+].[Na+]` [Gd-EOB-DTPA], for which, in series [1] (mixed clearance), the biliary clearance share was 50% and the renal clearance share is given as 50%.

For the compound `C[C@H](C(=O)[O-])N1CCN([C@H](C)C(=O)[O-])CCN([C@H](C)C(=O)[O-])CCN([C@H](C)C(=O)[O-])CC1.[Gd+3]` [Gd-DOTMA], in series [2] (SAP isomer), the “ΔH^‡” value was 12.8 ± 0.693 kcal/mol and the “τM^310K” value is reported as 156 ns. Besides, in series [2] (TSAP isomer), the “ΔH^‡” value was 9.63 ± 0.526 kcal/mol and the “τM^310K” value is on record as 26 ns.

As for `O=C([O-])CN1CCN(CC(=O)[O-])CCN(CC(=O)[O-])CCN(CC(=O)[O-])CC1.[Gd+3]` [[GdDOTA]^−, reference compound], the r1 relaxivity in series [3] (4.5% w/v HSA (1.4T)) worked out at 4.1 mM⁻¹ s⁻¹; in series [3] (Human Plasma (1.4T)), 4.0 mM⁻¹ s⁻¹; in series [3] (Water (1.4T)) it was 3.2 mM⁻¹ s⁻¹. The “half-life of the complex” value in series [4] (1N HCl, room temperature) is < 25 h; in series [4] (100 equivalents of zinc chloride at 50 °C), ~ 100 h. For the same compound, the “Gd biodistribution / elimination profile” value in series [5] is recorded as “rapid elimination from the body via the kidneys”. Further, the “Gd(III) present at 6 h post injection” value in series [5] (ICP-MS) is on record as “Low levels”. Moreover, the “ΔH^‡” value in series [2] (SAP isomer) was 13.9 ± 0.598 kcal/mol; in series [2] (TSAP isomer), 10 ± 0.741 kcal/mol. Moreover, the “τM^310K” value in series [2] (SAP isomer) is listed as 141 ns; in series [2] (TSAP isomer) it was 27 ns.

Consider `CC[C@H]1CN(CC(=O)[O-])[C@@H](CC)CN(CC(=O)[O-])[C@@H](CC)CN(CC(=O)[O-])[C@@H](CC)CN1CC(=O)[O-].[Gd+3]` [[GdL2]^−], for which the “Gd biodistribution / elimination profile” value in series [5] is recorded as “mainly distributed in the liver”. For the same compound, the “Gd(III) detected after 60 min (liver retention)” value in series [5] (ICP-MS) is listed as “negligible amounts”.

In the case of `C[C@H](C(=O)[O-])N1CCN([C@H](C)C(=O)[O-])CCN([C@H](C)C(=O)[O-])[C@@H](Cc2ccc([N+](=O)[O-])cc2)CN([C@H](C)C(=O)[O-])CC1.[Gd+3]` [Gd-NB-DOTMA(S-RRR)], in series [2] (S-SSSS = SAP, S-RRR = TSAP), the “ΔH^‡” value was 6.62 kcal/mol and the “τM^310K” value is 9.4 ns.

As for `O=C([O-])CN1CCN(CC(=O)[O-])CCN(CC(=O)[O-])[C@@H](Cc2ccc([N+](=O)[O-])cc2)CN(CC(=O)[O-])CC1.[Gd+3]` [Gd-NB-DOTA], in series [2] (Mix of isomers), the “ΔH^‡” value is 8.48 kcal/mol and the “τM^310K” value is on record as 111 ns.

`CC[C@@H]1CN(CC(=O)[O-])[C@H](CC)CN(CC(=O)[O-])[C@H](CC)CN(CC(=O)[O-])[C@H](CC)CN1CC(=O)[O-].[Gd+3]` [[Gd(R)L2B]^−]: the “ΔH^‡, enthalpy change of activation of water exchange” value in series [6] was found to be 2.87 ± 0.406 kcal/mol. Further, in series [6], the “τM^310K, mean residence time of the water co-ligand at 310 K” value is given as 2.9 ± 0.1 ns. In addition, the r1 relaxivity worked out at 4.8 mM⁻¹ s⁻¹ in series [3] (4.5% w/v HSA (1.4T)), 4.9 mM⁻¹ s⁻¹ in series [3] (Human Plasma (1.4T)) and 3.9 mM⁻¹ s⁻¹ in series [3] (Water (1.4T)).

With `O=C([O-])CN(CCN(CC(=O)[O-])CC(=O)[O-])CCN(CC(=O)[O-])C(COCc1ccccc1)C(=O)[O-].[Gd+3]` (stereo not drawn) [Gd-BOPTA], the “elimination through the biliary system” value in series [1] was < 10%.

For the compound `CC[C@@H]1CN(CC(=O)[O-])[C@H](CC)CN(CC(=O)[O-])[C@H](CC)CN(CC(=O)[O-])[C@H](CC)CN1CC(=O)[O-].[Gd+3]` [[Gd(R)L2A]^−], the “ΔH^‡, enthalpy change of activation of water exchange” value in series [6] is 7.89 ± 0.502 kcal/mol. Besides, the “τM^310K, mean residence time of the water co-ligand at 310 K” value in series [6] worked out at 8.1 ± 0.4 ns. Besides, the r1 relaxivity in series [3] (4.5% w/v HSA (1.4T)) was determined as 4.5 mM⁻¹ s⁻¹; in series [3] (Human Plasma (1.4T)), 4.6 mM⁻¹ s⁻¹; in series [3] (Water (1.4T)), 3.9 mM⁻¹ s⁻¹.

With `O=C([O-])CN(CCN(CC(=O)[O-])C[C@H](COP(=O)([O-])OC1CCC(c2ccccc2)(c2ccccc2)CC1)N(CC(=O)[O-])CC(=O)[O-])CC(=O)[O-].[Gd+3].[H+].[H+].[H+]` [MS-325], in series [1], the blood half-life entry is given as “unusually long”, the serum albumin binding entry is “extensive serum albumin binding” and the “elimination through the biliary system” value is < 10%.

As for `C[C@@H](C(=O)[O-])N1CCN([C@@H](C)C(=O)[O-])CCN([C@@H](C)C(=O)[O-])[C@@H](Cc2ccc([N+](=O)[O-])cc2)CN([C@@H](C)C(=O)[O-])CC1.[Gd+3]` [Gd-NB-DOTMA(S-SSSS)], in series [2] (S-SSSS = SAP, S-RRR = TSAP), the “ΔH^‡” value was 6.31 kcal/mol and the “τM^310K” value is 77 ns.
